Data published in US7365174B2, “Azalide and azalactam derivatives and method for producing the same” (Meiji Seika Kaisha, Ltd., priority 2003, dated 2008).
Converted amounts (≈) assume the structure as drawn. Where two headings read alike, the source gives them in different places.

Key:
Experiment in all cases: Antibacterial activity test (agar dilution MIC)
Assay type in all cases: cell-based
[1] = system: Staphylococcus aureus 209P JC-1; details: read-out: Minimum inhibitory concentration (MIC)
Protocol: (§1) In vitro antibacterial activities of the compounds of Examples 13, 28, 35, 43, 53 to 55, 64, 70, 84, 90, 94, 95, 108, 128, and 129 were measured as follows by referring to the standard method of the Japanese Society of Chemotherapy (Chemotherapy, Vol. 29, pp. 76-79, 1981). The antibacterial activity of midecamycin (MDM) was similarly measured for comparison.
(§2) Using each solution of the test substance prepared in methanol at a concentration of […], 2-fold serial dilutions were prepared by using methanol. Each of the prepared solutions of the test substances was put into a petri dish in a volume of 200 μl, added with 10 ml of agar medium for sensitivity measurement added with 5% horse sterile defibrinated blood, 15 μg/ml of β-nicotinamide-adenine dinucleotide, and 2.5 μg/ml of Hemin, and mixed for dilution to prepare an agar plate containing a test substance. A predetermined volume of a liquid medium for sensitivity measurement, prepared so as to contain a given number of test bactera, was inoculated on the agar plate containing a test substance by using a micro planter (Sakuma Seisakusho), and after the inoculation, the bacteria were cultured at 37° C. for about 20 hours. After the culture, presence or absence of growth of the test bacteria on the plate was observed by visual inspection, and the minimum concentration at which growth was not observed was determined as the minimum inhibitory concentration (MIC) of the test sustance.

[2] = system: Streptococcus pyogenes Cook; details: read-out: Minimum inhibitory concentration (MIC)
Protocol: as §1, §2

[3] = system: Streptococcus pneumoniae TH-662; details: read-out: Minimum inhibitory concentration (MIC)
Protocol: as §1, §2

[4] = system: Haemophilus influenzae 9334; details: read-out: Minimum inhibitory concentration (MIC)
Protocol: as §1, §2

[5] = system: Moraxella catarrhalis W-0506; details: read-out: Minimum inhibitory concentration (MIC)
Protocol: as §1, §2

[6] = system: Streptococcus pneumoniae DP1 TypeI; details: DP1TYPEI, read-out: Minimum inhibitory concentration (MIC)
Protocol: as §1, §2

[7] = system: Streptococcus pneumoniae IP692; details: read-out: Minimum inhibitory concentration (MIC)
Protocol: as §1, §2

[8] = test bacterium A = Staphylococcus aureus 209P JC-1, blood agar medium, 37° C., about 20 hours
[9] = test bacterium E = Streptococcus pyogenes Cook, blood agar medium, 37° C., about 20 hours
[10] = TH662, test bacterium D = Streptococcus pneumoniae TH-662, blood agar medium, 37° C., about 20 hours
[11] = test bacterium G = Haemophilus influenzae 9334, blood agar medium, 37° C., about 20 hours
[12] = W0506, test bacterium F = Moraxella catarrhalis W-0506, blood agar medium, 37° C., about 20 hours
[13] = test bacterium B = Streptococcus pneumoniae DP1 TypeI, blood agar medium, 37° C., about 20 hours
[14] = test bacterium C = Streptococcus pneumoniae IP692, blood agar medium, 37° C., about 20 hours

| Structure (SMILES) | MIC [1, 8] [µg/mL] | MIC [2, 9] [µg/mL] | MIC [3, 10] [µg/mL] | MIC [4, 11] [µg/mL] | MIC [5, 12] [µg/mL] | MIC [6, 13] [µg/mL] | MIC [7, 14] [µg/mL] | MIC ([1]; Staphylococcus aureus, 209P, 20 h) [µg/mL] | MIC ([2]; Streptococcus pyogenes, 20 h) [µg/mL] | MIC ([3]; Streptococcus pneumoniae, TH662, 20 h) [µg/mL] | MIC ([4]; Haemophilus influenzae, 9334, 20 h) [µg/mL] | MIC ([5]; Moraxella catarrhalis, W0506, 20 h) [µg/mL] | MIC ([6]; Streptococcus pneumoniae, 20 h) [µg/mL] | MIC ([7]; Streptococcus pneumoniae, IP692, 20 h) [µg/mL] |
| --- | --- | --- | --- | --- | --- | --- | --- | --- | --- | --- | --- | --- | --- | --- |
| CCC(=O)OC1C(C)O[C@@H](O[C@@H]2C(C)O[C@@H](O[C@H]3[C@@H](CC=O)C[C@@H](C)[C@@H](O)CN(CCCCc4ccccc4)CCCNC(=O)C[C@@H](OC(=O)CC)[C@@H]3OC)C(O)C2N(C)C)CC1(C)OC(C)=O (some centres unmarked) [Example 13] | 0.25 (≈ 0.259 µM) | 0.25 (≈ 0.259 µM) | 16 (≈ 16.6 µM) | 0.5 (≈ 0.519 µM) | 0.25 (≈ 0.259 µM) | 0.13 (≈ 0.135 µM) | 0.25 (≈ 0.259 µM) |  |  |  |  |  |  |  |
| CCC(=O)O[C@@H]1CC(=O)O[C@@H](C/C=C/c2cnc3ccccc3c2)CCCN(C)C[C@H](O)[C@H](C)C[C@H](CC=O)[C@H](O[C@@H]2OC(C)[C@@H](O[C@H]3CC(C)(OC(C)=O)[C@@H](OC(=O)CC)C(C)O3)C(N(C)C)C2O)[C@H]1OC (some centres unmarked) [Example 90] | 0.25 (≈ 0.243 µM) | 0.03 (≈ 0.0292 µM) | 0.25 (≈ 0.243 µM) | 4 (≈ 3.89 µM) | 1 (≈ 0.973 µM) | 0.015 (≈ 0.0146 µM) | 0.03 (≈ 0.0292 µM) |  |  |  |  |  |  |  |
| CCC(=O)OC1C(C)O[C@@H](O[C@@H]2C(C)O[C@@H](O[C@H]3[C@@H](CC=O)C[C@@H](C)[C@@H](O)CN(C)CCC(/C=C/Cc4ccnc5ccccc45)NC(=O)C[C@@H](OC(=O)CC)[C@@H]3OC)C(O)C2N(C)C)CC1(C)O (some centres unmarked) [Example 28] | 0.5 (≈ 0.515 µM) | 0.25 (≈ 0.257 µM) | 8 (≈ 8.24 µM) | 1 (≈ 1.03 µM) | 2 (≈ 2.06 µM) | 0.03 (≈ 0.0309 µM) | 0.13 (≈ 0.134 µM) |  |  |  |  |  |  |  |
| CCC(=O)O[C@@H]1CC(=O)OCCC(/C=C/Cc2ccnc3ccccc23)CN(C)C[C@H](O)[C@H](C)C[C@H](CC=O)[C@H](O[C@@H]2OC(C)[C@@H](O[C@H]3CC(C)(O)[C@@H](OC(=O)CC)C(C)O3)C(N(C)C)C2O)[C@H]1OC (single isomer, unassigned) [Example 54] | 0.13 (≈ 0.132 µM) | 0.03 (≈ 0.0304 µM) | 8 (≈ 8.11 µM) |  | 1 (≈ 1.01 µM) | 0.015 (≈ 0.0152 µM) | 0.03 (≈ 0.0304 µM) |  |  |  |  |  |  |  |
| CCC(=O)O[C@@H]1CC(=O)O[C@H](C)C/C=C/C=C/[C@H](O)[C@H](C)C[C@H](CC=O)[C@H](O[C@@H]2O[C@H](C)[C@@H](O[C@H]3C[C@@](C)(O)[C@@H](OC(=O)CC)[C@H](C)O3)[C@H](N(C)C)[C@H]2O)[C@H]1OC [MDM, midecamycin, reference compound] |  |  |  |  |  |  |  | 0.5 (≈ 0.614 µM) | 0.25 (≈ 0.307 µM) | > 128 | 2 (≈ 2.46 µM) | 2 (≈ 2.46 µM) | 0.25 (≈ 0.307 µM) | 0.5 (≈ 0.614 µM) |
| CCC(=O)O[C@@H]1CC(=O)O[C@@H](C/C=C/c2cnc3ncccc3c2)CCCN(C)C[C@H](O)[C@H](C)C[C@H](CC=O)[C@H](O[C@@H]2OC(C)[C@@H](O[C@H]3CC(C)(OC(C)=O)[C@@H](OC(=O)CC)C(C)O3)C(N(C)C)C2O)[C@H]1OC (some centres unmarked) [Example 94] | 0.5 (≈ 0.486 µM) | 0.06 (≈ 0.0583 µM) | 0.5 (≈ 0.486 µM) | 4 (≈ 3.89 µM) | 1 (≈ 0.972 µM) | 0.015 (≈ 0.0146 µM) | 0.03 (≈ 0.0291 µM) |  |  |  |  |  |  |  |
| CCC(=O)O[C@@H]1CC(=O)OCCC(/C=C/Cc2ccnc3ccccc23)CN(C)C[C@H](O)[C@H](C)C[C@H](CC=O)[C@H](O[C@@H]2OC(C)[C@@H](O)C(N(C)C)C2O)[C@H]1OC (some centres unmarked) [Example 55] | 0.5 (≈ 0.636 µM) | 0.06 (≈ 0.0763 µM) | > 128 |  | 0.25 (≈ 0.318 µM) | 0.03 (≈ 0.0382 µM) | 0.03 (≈ 0.0382 µM) |  |  |  |  |  |  |  |
| CCC(=O)O[C@@H]1CC(=O)O[C@@H](C/C=C/c2cccc(-c3cccnc3)c2)CCCN(C)C[C@H](O)[C@H](C)C[C@H](CC=O)[C@H](O[C@@H]2OC(C)[C@@H](O[C@H]3CC(C)(OC(C)=O)[C@@H](OC(=O)CC)C(C)O3)C(N(C)C)C2O)[C@H]1OC (some centres unmarked) [Example 108] | 0.5 (≈ 0.474 µM) | 0.13 (≈ 0.123 µM) | 0.5 (≈ 0.474 µM) | 8 (≈ 7.59 µM) | 2 (≈ 1.9 µM) | 0.03 (≈ 0.0285 µM) | 0.06 (≈ 0.0569 µM) |  |  |  |  |  |  |  |
| CCC(=O)O[C@@H]1CC(=O)O[C@@H](C/C=C/c2ccc3ccccc3c2)CCCN(C)C[C@H](O)[C@H](C)C[C@H](CC=O)[C@H](O[C@@H]2OC(C)[C@@H](O[C@H]3CC(C)(O)[C@@H](OC(=O)CC)C(C)O3)C(N(C)C)C2O)[C@H]1OC (some centres unmarked) [Example 84] | 0.5 (≈ 0.507 µM) | 0.25 (≈ 0.254 µM) | 8 (≈ 8.12 µM) | 8 (≈ 8.12 µM) | 2 (≈ 2.03 µM) | 0.06 (≈ 0.0609 µM) | 0.06 (≈ 0.0609 µM) |  |  |  |  |  |  |  |
| CCCC(=O)O[C@H]1C(C)O[C@@H](O[C@@H]2C(C)O[C@@H](O[C@H]3[C@@H](CC=O)C[C@@H](C)[C@@H](O)CN(C)CCC[C@H](C/C=C/c4cnc5ccccc5c4)OC(=O)C[C@@H](O)[C@@H]3OC)C(O)C2N(C)C)CC1(C)OC(=O)CC (some centres unmarked) [Example 128] | 0.5 (≈ 0.5 µM) | 0.06 (≈ 0.06 µM) | 0.13 (≈ 0.13 µM) | 16 (≈ 16 µM) | 1 (≈ 1 µM) | 0.03 (≈ 0.03 µM) | 0.03 (≈ 0.03 µM) |  |  |  |  |  |  |  |
| CCC(=O)OC1C(C)O[C@@H](O[C@@H]2C(C)O[C@@H](O[C@H]3[C@@H](CC=O)C[C@@H](C)[C@@H](O)CN(C)CCC(CCCc4cnc5ccccc5c4)NC(=O)C[C@@H](OC(=O)CC)[C@@H]3OC)C(O)C2N(C)C)CC1(C)O (some centres unmarked) [Example 35] | 1 (≈ 1.03 µM) | 0.25 (≈ 0.257 µM) | 8 (≈ 8.22 µM) | 2 (≈ 2.06 µM) | 4 (≈ 4.11 µM) | 0.03 (≈ 0.0308 µM) | 0.06 (≈ 0.0617 µM) |  |  |  |  |  |  |  |
| CCC(=O)O[C@@H]1CC(=O)NCCCCN(CCCCc2ccccc2)C[C@H](O)[C@H](C)C[C@H](CC=O)[C@H](O[C@@H]2OC(C)[C@@H](O[C@H]3CC(C)(OC(C)=O)[C@@H](OC(=O)CC)C(C)O3)C(N(C)C)C2O)[C@H]1OC (some centres unmarked) [Example 64] | 0.25 (≈ 0.256 µM) | 0.06 (≈ 0.0613 µM) | 8 (≈ 8.18 µM) | 1 (≈ 1.02 µM) | 0.25 (≈ 0.256 µM) | 0.13 (≈ 0.133 µM) | 0.25 (≈ 0.256 µM) |  |  |  |  |  |  |  |
| CCCC(=O)O[C@H]1C(C)O[C@@H](O[C@@H]2C(C)O[C@@H](O[C@H]3[C@@H](CC=O)C[C@@H](C)[C@@H](O)CN(C)CCC[C@H](C/C=C/c4cncc5ccccc45)OC(=O)C[C@@H](O)[C@@H]3OC)C(O)C2N(C)C)CC1(C)OC(=O)CC (some centres unmarked) [Example 129] | 0.5 (≈ 0.5 µM) | 0.06 (≈ 0.06 µM) | 0.13 (≈ 0.13 µM) | 8 (≈ 8 µM) | 1 (≈ 1 µM) | 0.015 (≈ 0.015 µM) | 0.03 (≈ 0.03 µM) |  |  |  |  |  |  |  |
